Here are results for five compounds from publication PMC5072831, “Novel Nuclear Factor-KappaB Targeting Peptide Suppresses β-Amyloid Induced Inflammatory and Apoptotic Responses in Neuronal Cells” (PLoS ONE, 2016).

The test system of series [1] is NF-κΒ p65. Particulars: ref [61]; cited from earlier work. From the text:
There is increasing interest in developing disease modifying agents for neurodegenerative diseases based on molecular pathogenesis. […] As opposed to high throughput screening, computational design of interface peptide mimics followed by functional evaluation represe ...

Series [2] relates to caspase-3. Particulars: ref [70], [71]; cited from earlier work. From the text: Multiple caspases including caspase-3 and caspase-9 are transcriptionally elevated in AD [66, 67].
Series [3] deals with activated p65 NF-κΒ subunit. Description: NF-κB assay, nuclear p65 DNA binding (TransAM) in HFB. The format is cell-based, human. Particulars: HFB exposed to Aβ1–42, 4 h, 5μg nuclear extract, TransAM ELISA; average+/-SD from two experiments. The procedure: (§1) Primary HFB exposed to Aβ1–42 and treated with GA or CP as above was harvested at the end of 4h. Nuclear and cytoplasmic fractions were extracted using the CelLytic™ NuCLEAR™ Extraction Kit (Sigma) following manufacturer’s protocol. Five microgram of nuclear extracts was incubated in a 96-well plate coated with oligonucleotides containing the NF-κΒ consensus nucleotide sequence (5’-[…]-3’). The activated NF-κΒ bound to DNA was detected by anti-p65 antibody followed by a peroxidase coupled secondary antibody and substrate using the TransAM kit protocol (Active Motif). Nuclear extracts of Raji cells was used as the positive control.
Fig 6 Effect of GILZ analog (GA) treatment on human fetal brain cells (HFB): (A,B): Select GA decrease metabolic activity in Aβ1–42 exposed HFB. […] Cytoplasmic extracts of cells collected at 24h was assessed for viability by CTG assay. […] HFB cells were cultured as above and culture medium collected at 24hrs was assessed for pro-inflammatory (IL-1β, IL-6 and IL-17) (C, D, E and F) and anti-inflammatory (TGF-β) (G) cytokines. […] The p65 DNA binding activity was calculated as the ratio of absorbance from Aβ1–42 stimulated cells to that of unstimulated cells. […]
We measured nuclear p65 using activated NF-κΒ specific ELISA and calculated the p65 DNA binding activity as the ratio of absorbance form Aβ1–42 stimulated cells to that of unstimulated cells. […]

Series [4] deals with IL-1β mRNA. Description: IL-1β mRNA in HFB by quantitative real-time PCR. The format is cell-based, human. The note with it: Aβ1–42 exposure alone. The procedure:
(§2) Primary HFB exposed to Aβ1–42 and treated with GA or CP as above was harvested at the end of 24h. Total cellular RNA was isolated using Qiagen kit (Invitrogen, Carlsbad, CA) following manufacturer's protocol. Total RNA (2–4 μg) was reverse transcribed using iScript cDNA synthesis kit (Biorad, CA). The concentration of the cDNA was measured at 260 and 280 nm by the Gensys5 model UV-visible spectrophotometer (Thermoelectronic Corp.,CA). Real-time PCR was performed by using the SYBR green/ROX qPCR master mix (SABiosciences, Frederick, MD) according to manufacturer's recommendations on the CFX96 Touch™ Real-Time PCR Detection System (Biorad laboratories, Hercules, California, USA). Each reaction contains 2×12.5 μl of SYBR green Master Mix, 1 μl of 10 μM of primers and 50 ng of the cDNA, to a total volume of 25 μl. The thermal cycling conditions included an initial denaturation step at 50°C for 2 min, 95°C for 3 min, 39 cycles at 95°C for 30 s, annealing temperature at 54°C for 30 s and extension at 72°C for 30s. The primers are F-GAPDH-5′-[…]-3′; R-GAPDH:5′-G […]-3′(102bp); F-IL-1β:5′-[…]-3′; R-IL-1β:5′[…]-3′ (89 bp); F-IL-6:5′-[…] […] The difference in each gene-specific threshold between the samples from vehicle treated and GA or CP treated cells was determined to obtain the relative change in the specific mRNA. The magnitude of change in the mRNA was expressed as 2^ΔΔCt. […]

Series [5] relates to human fetal brain cells (HFB). Description: CTG viability in human primary mixed brain cultures (HFB). The format is cell-based. The procedure: HFB were prepared and cultured as described (S1 and S2 Docs). Briefly, cells were cultured in Neurobasal medium (Invitrogen) without phenol red supplemented with 1xB27, […], 1xantibiotic cocktail, 5ng/mL recombinant fibroblast growth factor 2 (bFGF) (Invitrogen), and 2μL/mL Normocin (InVivoGen, San Diego, CA, USA). Cells were counted and seeded onto poly-D-lysine (Sigma-Aldrich) coated 24-well plates (Corning, Lowell, MA, USA) at 1.5x10^5 cells per well and maintained at 37°C in a 5% CO2 incubator. Half media changes were performed every 4th day of culture and morphology was monitored via phase contrast microscopy. Culture medium was removed from cells on day 17 (DIV17) and replaced with Neurobasal medium with B27. […] Cells and conditioned media were harvested and stored for further analysis. Relative ATP concentration was measured using the CTG kit (Promega). Data is presented as ΔRLU = RLU of Aβ1–42 exposed cells–RLU unexposed cells. Conditioned media collected were assessed for specific cytokines using the OptEIA kits (BD Biosciences).

Series [6] has as its system nuclear p50. Description: Nuclear p50 in HFB. The format is cell-based, human. Particulars: HFB exposed to Aβ1–42. The procedure: as §1
We measured nuclear p65 using activated NF-κΒ specific ELISA and calculated the p65 DNA binding activity as the ratio of absorbance form Aβ1–42 stimulated cells to that of unstimulated cells. […] There was a trend towards decreased nuclear p65 in Aβ1–42 exposed cells treated with GA-1 (6.13+/-1.3) and GA-2 (6.7+/-1.5) as compared to untreated cells (14.75+/-3.5). Nuclear p65 of Aβ1–42 exposed cells treated with CP-1, CP-2 and CP-3 measured 6.8+/-3.9, 10.2+/-2.9 and 10.1+/-3.7 respectively (Fig 6H). […] Although we observed slightly elevated nuclear p50 in Aβ1–42 (6.15+/-1.2) than in unexposed cells (0.5+/-2.7), no difference was observed between GA peptide of CP treated cells and untreated cells (data not shown).

Series [7] has as its system Caspase-9 mRNA. Description: Caspase-9 mRNA in HFB by quantitative real-time PCR. The format is cell-based, human. The note with it: Aβ1–42 exposure alone. The procedure:
as §2

Series [8] has as its system IL-6 mRNA. Description: IL-6 mRNA in HFB by quantitative real-time PCR. The format is cell-based, human. The note with it: Aβ1–42 exposure alone. The procedure:
as §2

Series [9] has as its system Caspase-3 mRNA. Description: Caspase-3 mRNA in HFB by quantitative real-time PCR. In kind it is cell-based, human. Particulars: Aβ1–42 exposure alone. The procedure: as §2
The conditions of series [10]: ref [67]; cited from earlier work.

Turning to `C=C1C(=O)[C@]23C[C@H]1C[C@H](OC(C)=O)[C@H]2[C@]1(C)[C@@H](OC(C)=O)C[C@H](O)C(C)(C)[C@H]1C(=O)[C@@H]3OC(C)=O` [adenanthin], in [1], the “effect in AD models” value is “interact with NF-κΒ p65, suppress inflammation and cytotoxicity in AD models”.

As to `COc1ccc2[nH]cc(CCNC(C)=O)c2c1` [melatonin], the “effect on Aβ-induced caspase-3 activity” value in series [2] is given as “suppress Aβ-induced caspase-3 activity”.

With `Oc1ccc(/C=C/c2cc(O)cc(O)c2)cc1` [resveratrol], the “effect in AD models” value in [1] was “interact with NF-κΒ p65, suppress inflammation and cytotoxicity in AD models”.

Take “Aβ1–42: Purified Aβ1–42 peptide (American Peptide company), used as stimulus”: the “nuclear p65 DNA binding activity (ratio of absorbance, Aβ1–42 stimulated / unstimulated)” value in series [3] was 14.75+/-3.5. Also, the “IL-1β mRNA (in words)” value in [4] is on record as “upregulation of mRNA for IL-1β”. For the same compound, the “average RLU of cultures exposed to Aβ1–42” value in series [5] (lower end over different experiments) is reported as 6067.25+/-903.05; in series [5] (upper end over different experiments), 11574.25+/- 4139.3. In addition, in series [6], the “nuclear p50” value was 6.15+/-1.2. In series [7], the “caspase 9 mRNA (in words)” value was “upregulation of mRNA for caspase 3 and caspase 9”. In [8], the “IL-6 mRNA (in words)” value was “upregulation of mRNA for IL-1β and IL-6”. Moreover, the “caspase 3 mRNA (in words)” value in [9] is listed as “upregulation of mRNA for caspase 3”.

In the case of oncocin, the “influx into CNS and distribution in brain parenchyma” value in [10] is “significant influx into CNS and distribution within the brain parenchyma”.
